Test results as given in publication PMC8541353, “A Novel Phenylpyrrolidine Derivative: Synthesis and Effect on Cognitive Functions in Rats with Experimental Ishemic Stroke” (Molecules, 2021).

How the values were obtained:
Assay type in all cases: in vivo, Wistar rats
rats with MCAO [1] = assay: Beam walking test (BWT) after MCAO; design: key to Left forelimb score / Right forelimb score / Left hindlimb score / Right hindlimb score: score = errors + 0.5 × slides × 100/total number of steps; settings: for Animals that failed to train for the BWT test: after MCAO, days 12–14; for Left forelimb score / Left hindlimb score / Right forelimb score / Right hindlimb score: day 14 after MCAO, mean ± SD
Method: A MCAO animal model was used to characterize the effects of compound 1 on the development and resolution of stroke. At the baseline, we performed the MRI and hole-board test before MCAO surgery. Once animals recovered after the surgery, we stratified them based on their background psycho-emotional status and performed a control MRI to access whether the occlusion was sufficient or not. […] From 24 h to day 7, the neurological status was assessed daily according to the neurological scale (mNSS). By the end of day 7, animals underwent MRI. In addition, MRI was performed on days 14 and 28 (Shceme 3)The hole-board test was repeated on days 10 and 24. The degree of motor function impairment, the deficit of exploratory behavior, and the recovery process were assessed in the beam walking test (BWT), which was performed twice on days 12 and 14. An open field test was carried out on days 16 and 26.
The increased locomotor activity, expanded orientational research activity, and reduced anxiety and depressive behavior in rats treated with compound 1 highlighted the possible benefits of the compound in post-ischemic stroke management. As stroke affects not only locomotor activity but also the cognitive behavior, we conducted an additional beam walking test. It is proven that depression and anxiety in the post-stroke period increase the risk of mortality and affect the functional recovery of patients. There is a direct relationship between the severity of cognitive deficits, patients’ survival, and their successful social integration. Conventionally, BWT is aimed at finding motor deficits on the contralateral side of the brain lesion. However, based on the test methodology, which was testing animals before surgery and on the 12th–14th days after surgery, we can indirectly conclude whether the memory trace is preserved or lost. […] Most of the animals from the saline group sat still and one rat fell. Since the hippocampus, which is a structure responsible for the formation of both […] and long-term memory, is involved in the pathological process of ischemia, in rats, we hypothesized that the ability to reproduce and form a memorable trace can be also affected in our MCAO model. According to MRI data, the hippocampus was indeed affected by MCAO. Thus, compound 1 possibly helped to restore neural connections in the hippocampus as quickly as possible.
(§1) In the first experimental series, the following test systems were used: HBT (OpenScience, Russia), OFT (OpenScience), and LDT (OpenScience). The design for the second experimental series was as follows. All rat behavioral changes were evaluated during the four weeks after stroke simulation. Individuals who performed these procedures were double-blinded. General neurological disorders were assessed using the modified neurological severity score (mNSS). Motor and cognitive impairment were evaluated using the following functional tests: BWT (OpenScience), HBT (OpenScience), and OFT (OpenScience). The BWT was performed between postoperative days 12 and 14. In this test, motor dysfunction in all four limbs was evaluated; specifically, the number of steps, errors, and slides were counted. The overall score was calculated using the following formula: score = errors + 0.5 × slides × 100/total number of steps [47]. The beam apparatus consists of 165 cm beams with a flat surface of 10 mm or 6 mm width, resting 100 cm above the table top on two poles. A black box is placed at the end of the beam as the finish point. Nesting material from home cages is placed in the black box to attract the rat to the finish point. A lamp (with 60-watt light bulb) is used at the start to stimulate the animals to move towards the end.

intact animals [2] = assay: Light-dark box test (LDB) in intact animals; settings: intact rats, day 8; compound 1 125 mg kg^−1, piracetam 300 mg kg^−1, intraperitoneally for 5 days; mean and SD
From the text: (§2) Before the study, the intact animals were subjected to the hole-board test (HBT), weighed, and stratified into three uniform groups in terms of orientational/exploratory activity and weight. […] On day 7, we performed OFT (open field test), followed by LDB (light—dark box test) on day 8 (Scheme 3, Step 1). These tests assess the activity and describe the behavior of the animals. According to OFT, compound 1 decreased the vertical activity and the immobility time compared to the saline-treated group (Table 2).
(§3) Before conducting the experiments, the animals underwent the HBT and were allocated to groups based on their behavior score and weight. Kullback–Leibler divergence method for allocation based on two numerical parameters was used for allocation. We used a sum score for behavior tests and weight. Subsequently, two experimental series were performed. In the first series, rat behavior without stroke modeling after injection of compound 1 (experimental group, n = 10) or saline (control group, n = 10) was evaluated (Scheme 3a). […] Compound 1 was injected at a dose of 125 mg kg^−1 and an injection volume of 0.5 mL. […] For the experiments, the following predetermined exclusion criteria were used: (1) incomplete MCAO indicated by an incomplete lesion on magnetic resonance imaging (MRI) after 24 h [n = 4]and (2) post-operative weight loss of > 20% and severe animal condition within the first post-stroke 48 h [n = 3]. Animals reached humane endpoints based on the absence of nociceptive reflex withdrawal responses, hypothermia, and heart rate reduction to 100–150 beats min^−1. As steroid treatment could have influenced the experiment, rats were humanely euthanized according to the ethical protocol. The experiment design is presented in Scheme 3b.
as §1

intact animals [3] = assay: Open field test (OFT) in intact animals; settings: intact rats, day 7; compound 1 125 mg kg^−1, piracetam 300 mg kg^−1, intraperitoneally for 5 days; mean and SD
From the text: as §2, §3, §1

rats with MCAO [4] = assay: Survival within 28 days after MCAO (Kaplan-Meier, log-rank); settings: 28 days after first administration, log-rank test
Method: All statistical analyses were performed using the IBM® SPSS® Statistics Version 23.0 and R software Version 3.3.2 (R Foundation for Statistical Computing, Vienna, Austria). For normally distributed quantitative continuous variables, the mean and standard deviation (SD) values were calculated and presented as descriptive statistics. For ordinal variables, median and 25- and 75-percentiles were calculated. For qualitative variables, the absolute count and percentage value for each category were calculated. For quantitative variables, the normality of distribution was verified using frequency histograms and Kolmogorov–Smirnov test. A two-tailed p-value < 0.05 was considered statistically significant. To compare changes in structure displacement, lesion size, and neurological scale, a general linear repeated measures model with a group as a fixed factor was used. One-way multivariate analysis of variance was used in the analysis of behavior. Experimental groups were designed to have an equal sample size (8 vs. 8 rats) based on sample size calculations for the independent sample t-test using Statistica 10 software (type I error 0.05, type II error 0.20). Animal survival was estimated by the Kaplan–Meier method using the log-rank test.

SMILES | Animals that failed to train for the BWT test (rats with MCAO [1]) | Left forelimb score (rats with MCAO [1]) | Left hindlimb score (rats with MCAO [1]) | Right forelimb score (rats with MCAO [1]) | Right hindlimb score (rats with MCAO [1]) | Number of crossings (n) (intact animals [2]) | Number of peeking out events (n) (intact animals [2]) | Time spent in the light compartment (intact animals [2]) [s] | Crossings (n) (intact animals [3]) | Grooming time (intact animals [3]) [s] | Immobility duration (intact animals [3]) [s] | Number of center sector crossings (center) (n) (intact animals [3]) | Vertical activity (n) (intact animals [3]) | Survival of animals vs other groups (rats with MCAO [4])
O=C(CN1CC(c2ccccc2)CC1=O)NCCS(=O)(=O)[O-].[K+] (stereo not shown) [Compound 1, potassium 2-[2-(2-oxo-4-phenylpyrrolidin-1-yl)acetamido]ethane-1-sulfonate] | No animals failed | 42.2 ± 28.0 | 28.8 ± 15.3 | 11.6 ± 13.8 | 45.8 ± 30.4 | 2.9 ± 1.2 | 5.2 ± 2.8 | 16.5 ± 8.3 | 53.7 ± 10.3 | 40.6 ± 33.2 | 12.8 ± 8.4 | 1.6 ± 0.6 | 10.3 ± 4.3 | no significant differences
NC(=O)CN1CCCC1=O [Piracetam, reference compound] | more than half of the animals and five | 32.8 ± 26.4 | 24.8 ± 22.2 | 12.4 ± 16.0 | 36.0 ± 30.4 | 3.7 ± 1.6 | 4.8 ± 2.5 | 26.3 ± 13.4 | 65.4 ± 20.4 | 14.4 ± 9.4 | 16.0 ± 10.4 | 1.4 ± 1.2 | 15.9 ± 7.5 | no significant differences
